The target of data set [1] is interaction between the E1 and E2 proteins of HPV11/HPV6 (Human papillomavirus 11, UniProt P04014+P04015). Kind of data set: E1/E2 interaction test (luciferase reporter, mammalian two-hybrid type). It is filed as cell-based. The text has this:
(§1) In the present invention two types of tests are used to study the biological activity of compounds against papillomavirus. A first test (“E1/E2 interaction test”) evaluates the interaction between the E1 and E2 proteins of HPV (human papillomavirus) in human cells. A second test (“replication test”) measures the replication of viral genomic DNA in human cells.
The test of interaction between E1 and E2 is similar to the tests often called “mammalian two-hybrid” tests. It is based on co-transfection of a reporter vector containing DNA binding sites for the E2 protein of HPV in the promoter controlling expression of the reporter gene, and of expression vectors coding the E1 and E2 proteins of HPV, the E1 protein being fused to the VP16 transactivation domain. […]
Compound (Ia), either in solution or in pharmaceutical compositions (a), (d), (f) and (g), was evaluated for its inhibitory activity on the interaction between the E1 and E2 proteins of HPV11/HPV6 in human cell lines derived from renal epithelial cells or cervical carcinoma cells. Various doses (0.25-40 μM) were incubated in the cell medium for 2 days after transfection, and luciferase activity was measured to determine the IC50 of the compound on the interaction between the E1 and E2 proteins of the HPVs.
A general note: A reporter such as luciferase makes a cellular process visible.

The test system of data set [2] is E1 and E2 protein-dependent viral replication of HPV11. The experiment in a line: Replication test (replicon reporter vector, luciferase). It is filed as cell-based. As to conditions: Homo sapiens, read-out: IC50 on E1 and E2 protein-dependent viral replication of HPV11 in cells.
Excerpt: as §1
The test of replication of viral genomic DNA is based on the co-transfection of a reporter vector containing an HPV origin of replication (ori) and expression vectors coding the E1 and E2 proteins of HPV. It makes it possible to follow the set of biological functions of E1 and E2 required for replication of the genome of the HPVs. […]
Compound (Ia), either in solution or in pharmaceutical compositions (a), (d), (f) and (g), was also evaluated for its inhibitory activity on the E1- and E2-dependent viral replication of HPV11/HPV6 in human cell lines derived from renal epithelial cells or cervical carcinoma cells. Various doses (0.25-40 μM) were incubated in the cell medium for 2 to 6 days after transfection, and luciferase activity was measured using a luminometer to determine the IC50 of the compound on the replication of the genome of the HPVs.
For orientation: Replicon systems follow genome replication, usually without infectious particles.

Data set [3] is described as follows: Percutaneous absorption in vitro on human skin mounted on a Franz cell. As to conditions: 8 hours of diffusion. It is filed as in vitro ADME. On the procedure:
The percutaneous absorption of compound (Ia) from pharmaceutical composition (g) was studied after the application of a dose of 10 mg/cm^2 on human skin mounted on a Franz cell. This study was carried out by comparing percutaneous absorption on healthy skin and on delaminated skin, as a model of the weak keratinization of the anogenital region.
After 8 or 24 hours of exposure to pharmaceutical composition (g), the quantity of compound (Ia) present in each skin layer (stratum corneum, epidermis, dermis) and that having crossed the skin (receiving fluid) is quantified by HPLC.
The stratum corneum of the non-delaminated skin samples is removed from the epidermis by peeling with adhesive. The latter is applied to the skin surface under constant and controlled pressure.

The nature of data set [4]: Solubility of the potassium salt in comparison with the hydrochloride. It is filed as physicochemical. As to conditions: potassium salt in comparison with its hydrochloride.

Chain of interaction between the E1 and E2 proteins of HPV11/HPV6 (P04014 whole entry): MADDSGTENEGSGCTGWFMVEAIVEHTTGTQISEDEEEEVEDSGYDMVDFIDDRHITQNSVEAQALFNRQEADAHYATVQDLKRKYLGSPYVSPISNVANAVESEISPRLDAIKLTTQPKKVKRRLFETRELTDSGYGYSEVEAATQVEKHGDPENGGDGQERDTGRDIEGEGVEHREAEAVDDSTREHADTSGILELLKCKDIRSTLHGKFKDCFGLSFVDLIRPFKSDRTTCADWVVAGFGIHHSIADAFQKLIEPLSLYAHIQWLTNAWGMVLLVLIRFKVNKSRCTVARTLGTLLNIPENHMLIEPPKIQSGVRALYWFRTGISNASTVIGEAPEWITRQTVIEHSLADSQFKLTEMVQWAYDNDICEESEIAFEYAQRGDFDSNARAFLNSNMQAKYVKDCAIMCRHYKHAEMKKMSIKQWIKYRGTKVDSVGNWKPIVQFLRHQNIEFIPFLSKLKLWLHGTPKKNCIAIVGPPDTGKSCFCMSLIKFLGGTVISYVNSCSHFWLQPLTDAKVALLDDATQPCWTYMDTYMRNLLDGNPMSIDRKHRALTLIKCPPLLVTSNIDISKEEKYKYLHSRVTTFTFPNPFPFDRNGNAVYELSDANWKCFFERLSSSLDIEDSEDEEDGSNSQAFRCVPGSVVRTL
Chain of interaction between the E1 and E2 proteins of HPV11/HPV6 (P04015 whole entry): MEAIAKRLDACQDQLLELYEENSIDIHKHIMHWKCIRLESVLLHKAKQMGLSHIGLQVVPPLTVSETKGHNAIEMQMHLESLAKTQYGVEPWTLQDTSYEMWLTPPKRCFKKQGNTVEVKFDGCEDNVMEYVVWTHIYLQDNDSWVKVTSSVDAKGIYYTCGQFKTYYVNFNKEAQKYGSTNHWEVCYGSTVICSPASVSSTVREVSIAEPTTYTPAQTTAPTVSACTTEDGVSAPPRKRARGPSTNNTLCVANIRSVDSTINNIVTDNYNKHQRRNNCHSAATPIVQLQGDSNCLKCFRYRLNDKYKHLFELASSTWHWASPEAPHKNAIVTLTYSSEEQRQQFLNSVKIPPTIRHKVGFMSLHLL

For the compound `COc1cc(CC(=O)NN(c2ccc(Cc3ccccc3)cc2)c2c(C)cccc2N2CCCCC2)c(Br)cc1C(=O)O` [Compound (Ia), 4-[N′-(4-benzyl-phenyl)-N′-(2-methyl-6-piperidin-1-yl-phenyl)-hydrazinocarbonylmethyl]-5-bromo-2-methoxy-benzoic acid], the IC50 in data set [1] and in data set [2] was ~1000 nM in each case. The entries for the “local concentration in the skin relative to the IC50 measured in cellulo” value in data set [3] (delaminated skin) and in data set [3] (healthy skin) were 1000 times and 100 times, respectively. Also, the solubility entry in data set [4] is given as “increases the solubility”.

The values are drawn from patent publication US9670159B2, “Pharmaceutical composition of a papillomavirus inhibitor” (AVIRAGEN THERAPEUTICS, INC., priority 2012, dated 2017).
